Assay results: ChEMBL document CHEMBL1131995, “Synthesis and pharmacological profile of 1-aryl-3-substituted pyrrolo[3,2-c]quinolines” (Bioorg Med Chem Lett, 1999)

target: Potassium-transporting ATPase (Oryctolagus cuniculus); assay: Compound was tested in vitro for H+/K+ ATPase activity in rabbit stomach preparations; settings: not given

SMILES	IC50 [µM]
COc1cccc2c1nc(C)c1c(C)cn(-c3ccccc3C)c12	> 100
COc1cccc2c1nc(C)c1c(C)cn(-c3ccc(F)cc3C)c12	72
COc1cccc2c1ncc1c(C)cn(-c3ccc(F)cc3C)c12	14
Cc1ccccc1-n1cc(C)c2cnc3c(O)cccc3c21	4.8
CCc1cn(-c2ccc(F)cc2C)c2c1cnc1c(OC)cccc12	5.7
COc1cccc2c1ncc1c(C(C)C)cn(-c3ccc(O)cc3C)c12	7.2
COc1cccc2c1ncc1c(C)cn(-c3ccccc3C)c12	8.2

Second part, the compound after the results:

IC50 [µM]	SMILES
100	COc1cccc2c1ncc1c(CO)cn(-c3ccccc3C)c12
> 100	COc1cccc2c1ncc1c(CO)cn(-c3ccc(F)cc3C)c12
4.8	CCc1cn(-c2ccc(O)cc2C)c2c1cnc1c(OC)cccc12
17	COc1cccc2c1ncc1c(C(C)C)cn(-c3ccccc3C)c12
> 100	COc1cccc2c1ncc1c(CCO)cn(-c3ccc(F)cc3C)c12
18	CCCC(=O)c1cnc2c(OC)cccc2c1Nc1ccccc1C
> 100	Cc1ccccc1-n1cc(C)c2cnc3c(OC(F)(F)F)cccc3c21
3.4	COc1cccc2c1ncc1c(C)cn(-c3ccc(OC(C)=O)cc3C)c12
80	COc1cccc2c1ncc1c(CCO)cn(-c3ccccc3C)c12

test system: Rattus norvegicus; assay: Compound was tested in vivo for gastric antisecretory activity after 5 hr of pylorus ligation of SD rat; assay type: functional; settings: Stomach

SMILES	ED50 [mg/kg]
COc1ccc2[nH]c([S+]([O-])Cc3ncc(C)c(OC)c3C)nc2c1 (stereo unspecified) [OMEPRAZOLE]	3.2
COc1cccc2c1ncc1c(C)cn(-c3ccc(F)cc3C)c12	10
CCc1cn(-c2ccc(O)cc2C)c2c1cnc1c(OC)cccc12	59
COc1cccc2c1ncc1c(C(C)C)cn(-c3ccccc3C)c12	90
Cc1ccccc1-n1cc(C)c2cnc3c(O)cccc3c21	58
CCc1cn(-c2ccc(F)cc2C)c2c1cnc1c(OC)cccc12	13
COc1cccc2c1ncc1c(C(C)C)cn(-c3ccc(O)cc3C)c12	49
CCCC(=O)c1cnc2c(OC)cccc2c1Nc1ccccc1C	20
COc1cccc2c1ncc1c(C)cn(-c3ccc(OC(C)=O)cc3C)c12	47
COc1cccc2c1ncc1c(C)cn(-c3ccccc3C)c12	13
